Like-named read-outs stand apart in the source and are kept apart here.
Tests used:
[1] = tested on: F18 Cured vaccine (MS060520HM-PCISRAF18); assay: Antibiotic sensitivity (Int/MIC) at Iowa State University; assay type: cell-based, E. coli; conditions: for MIC: F18 Cured vaccine; for Antibiotic resistance of cured cells (in words): cured MS060520HM-PCISRAF18 cells over MS112101HM-competent cells
Description: (§1) The antibiotic sensitivity of Edema Vac F18 cells cured of plasmids that contain AMR genes (MS060520HM-PCISRAF18) was performed at Iowa State University (ISU) (Accession: 2020076670) with comparison to MS112101HM-competent cells (see Tables 4 and 5).

[2] = tested on: F18 Pre-Cured cells (MS112101HM-competent); assay: as above; assay type: cell-based, E. coli; conditions: Table 4, E. COLH
Description: as §1

[3] = tested on: K88 Pre-Cured cells (ECMS091703HM-competent); assay: as above; assay type: cell-based, E. coli; conditions: Table 7, E. COS
Description: (§2) The antibiotic sensitivity of Entero Vac K88 cells cured of plasmids that contain AMR genes (MS-K88-030321HM-PC2BSRAK88) was performed at Iowa State University (ISU) with comparison to ECMS091703HM-competent cells.

[4] = tested on: K88 Cured vaccine (MS-K88-030321HM-PC2BSRAK88); assay: as above; assay type: cell-based, E. coli; conditions: for MIC: Table 7, E. COS, K88 Cured vaccine; for Antibiotic sensitivity of cured cells (in words): cured MS-K88-030321HM-PC2BSRAK88 cells compared with ECMS091703HM-competent cells
Description: as §2

[5] = tested on: MS112101HM-SR (Edema Vac F18 cells cured of plasmids that contain AMR genes); assay: AMR disc testing on Mueller Hinton agar plates; assay type: cell-based, E. coli; conditions: for Ring measurement (radius, mm): antibiotic disc, Mueller Hinton plates, MS112101HM-SR; for Resistance of the strain to the antibiotic (in words): disc test, MS112101HM-SR compared with MS112101HM-competent
Description: (§3) AMR testing was performed comparing MS112101HM—SR, MS112101HM-AMR5, and MS112101HM-competent cells cultured on Mueller Hinton agar plates using Sulfatrim (SXT), Tetracycline (TE 30), Neomycin (NE 30), Sulfathiazine (ST 0.25), and Gentamicin (GM 10) discs.

[6] = tested on: MS112101HM-AMR5 (Edema Vac F18 transformed with AMR5 plasmid); assay: AMR disc testing on Mueller Hinton agar plates; assay type: cell-based, E. coli; conditions: for Ring measurement (radius, mm): antibiotic disc, Mueller Hinton plates
Description: as §3

[7] = tested on: MS112101HM-competent (competent Edema Vac F18 cells); assay: AMR disc testing on Mueller Hinton agar plates; assay type: cell-based, E. coli; conditions: antibiotic disc
Description: as §3

[8] = tested on: ECMS091703HM-SR (Entero Vac K88 cells cured of plasmids that contain AMR genes); assay: AMR disc testing on Mueller Hinton agar plates; assay type: cell-based, E. coli
Description: AMR testing was performed comparing ECMS091703HM-SR and ECMS091703HM-competent cells cultured on Mueller Hinton agar plates using Neomycin (NE 30) and Sulfathiazine (ST 0.25) discs. A master plate of ECMS091703HM-SR was produced as follows: subculturing a colony of ECMS091703HM-SR from LB agar containing 5% sucrose on new LB agar containing 5% sucrose, incubating overnight at 37° C., and storing sealed at 2-8° C.

[9] = tested on: Entero Vac K88 strain of E. coli vaccine; conditions: TSB media, overnight 37° C.
Description: (§4) Testing for resistance of the live avirulent E. coli strains, Entero Vac K88 and Edema Vac F18, to sodium chlorite was performed by evaluating the minimum inhibitory concentration of sodium chlorite as follows: Serial dilutions of sodium chlorite were prepared from a 100 mM stock solution using sterile TSB media and filter sterilized through 0.22 μm filter. Serially diluted tubes (5 ml each) were inoculated with either Entero Vac K88 or Edema Vac F18 strains of E. coli vaccine by adding 20 μl of 100 dose size of either Entero Vac K88 or Edema Vac F18 vaccine rehydrated in 5 ml TSB media. Positive controls are inoculated TSB media only, negative controls are uninoculated TSB media. All tubes were incubated overnight at 37° C. and turbidity was visualized the following day. Results of the MIC tests are disclosed in Table 1.

[10] = tested on: Edema Vac F18 strain of E. coli vaccine; conditions: TSB media, overnight 37° C.
Description: as §4

Molecule: CN1C[C@@H]2C[C@H]1CN2c1cc2c(cc1F)c(=O)c(C(=O)O)cn2C1CC1 [Danofloxacin]
- MIC ([1]; Table 4, E. COLH): NI/<=0.1200
- MIC ([1]; Table 5, E. COS): NI/<=0.1200
- MIC [2]: NI/<=0.1200
- MIC [3]: NI/<=0.1200
- MIC [4]: NI/<=0.1200

Molecule: CS(=O)(=O)c1ccc([C@@H](O)[C@@H](CF)NC(=O)C(Cl)Cl)cc1 [Florfenicol]
- Antibiotic resistance of cured cells (in words) [1]: loss of antibiotic resistance
- Antibiotic sensitivity of cured cells (in words) [4]: more sensitive

Molecule: CCCN1C[C@H](C)[C@@H](O)[C@](C)(O)[C@@H](CC)OC(=O)[C@H](C)[C@@H](O[C@H]2C[C@@](C)(OC)[C@@H](O)[C@H](C)O2)[C@H](C)[C@@H](O[C@@H]2O[C@H](C)C[C@H](N(C)C)[C@H]2O)[C@](C)(O)C[C@H]1C [Gamithromycin]
- MIC ([1]; Table 4, E. COLH): NI/4.0000 ^
- MIC ([1]; Table 5, E. COS): NI/8.0000 ^
- MIC [2]: NI/4.0000 ^
- MIC [3]: NI/>8.0000
- MIC [4]: NI/8.0000 ^

Molecule: CN[C@@H]1[C@H](O)[C@H](NC)[C@H]2O[C@@]3(O)C(=O)C[C@@H](C)O[C@H]3O[C@@H]2[C@H]1O [Spectinomycin]
- MIC ([1]; Table 4, E. COLH): NI/16.0000
- MIC ([1]; Table 5, E. COS): NI/<=8.0000
- MIC [2]: NI/>64.0000
- MIC [3]: NI/>64.0000
- MIC [4]: NI/<=8.0000

Molecule: COc1cc(NS(=O)(=O)c2ccc(N)cc2)nc(OC)n1 [Sulfadimethoxine]
- Antibiotic resistance of cured cells (in words) [1]: loss of antibiotic resistance
- Antibiotic sensitivity of cured cells (in words) [4]: more sensitive

Molecule: CN(C)[C@@H]1C(O)=C(C(N)=O)C(=O)[C@@]2(O)C(O)=C3C(=O)c4c(O)cccc4[C@@](C)(O)[C@H]3C[C@@H]12 [Tetracycline]
- Ring measurement (radius, mm) [5]: 0 mm
- Ring measurement (radius, mm) [6]: 0 mm
- Ring measurement (radius, mm) [7]: 0 mm

Molecule: C=C[C@]1(C)C[C@@H](OC(=O)CSCCN(CC)CC)[C@]2(C)[C@H](C)CC[C@]3(CCC(=O)[C@H]32)[C@@H](C)[C@@H]1O [Tiamulin]
- Antibiotic resistance of cured cells (in words) [1]: retained resistance

Molecule: CC[C@H]1OC(=O)C[C@@H](O)[C@H](C)[C@@H](O[C@@H]2O[C@H](C)[C@@H](O)[C@H](N(C)C)[C@H]2O)[C@@H](CCN2CCCCC2)C[C@@H](C)C(=O)/C=C/C(C)=C/[C@@H]1CN1CCCCC1 [Tildipirosin]
- MIC ([1]; Table 4, E. COLH): NI/4.0000 ^
- MIC ([1]; Table 5, E. COS): NI/8.0000 ^
- MIC [2]: NI/4.0000 ^
- MIC [3]: NI/8.0000 ^
- MIC [4]: NI/8.0000 ^

Molecule: CC[C@H]1OC(=O)C[C@@H](O)[C@H](C)[C@@H](O[C@@H]2O[C@H](C)[C@@H](O)[C@H](N(C)C)[C@H]2O)[C@@H](CCN2C[C@H](C)C[C@H](C)C2)C[C@@H](C)C(=O)/C=C/C(C)=C/[C@@H]1CO[C@@H]1O[C@H](C)[C@@H](O)[C@@H](OC)[C@H]1OC [Tilmicosin]
- Antibiotic resistance of cured cells (in words) [1]: retained resistance

Molecule: CCCNC[C@]1(O)[C@H](C)O[C@@H](O[C@H]2[C@H](C)[C@@H](O[C@@H]3O[C@H](C)C[C@H](N(C)C)[C@H]3O)[C@](C)(O)C[C@@H](C)CN[C@H](C)[C@@H](O)[C@](C)(O)[C@@H](CC)OC(=O)[C@@H]2C)C[C@@]1(C)OC [Tulathromycin]
- MIC ([1]; Table 4, E. COLH): NI/<=8.0000
- MIC ([1]; Table 5, E. COS): NI/<=8.0000
- MIC [2]: NI/<=8.0000
- MIC [3]: NI/32.0000 ^
- MIC [4]: NI/<=8.0000

Molecule: CC[C@H]1OC(=O)C[C@@H](O)[C@H](C)[C@@H](O[C@@H]2O[C@H](C)[C@@H](O[C@H]3C[C@@](C)(O)[C@@H](O)[C@H](C)O3)[C@H](N(C)C)[C@H]2O)[C@@H](CC=O)C[C@@H](C)C(=O)/C=C/C(C)=C/[C@@H]1CO[C@@H]1O[C@H](C)[C@@H](O)[C@@H](OC)[C@H]1OC [Tylosin (Tartrate/Base), Tylosin]
- MIC ([1]; Table 4, E. COLH): NI/>32.0000^
- MIC ([1]; Table 5, E. COS): NI/>32.0000
- MIC [2]: NI/>32.0000
- MIC [3]: NI/>32.0000
- MIC [4]: NI/>32.0000

Molecule: Gentamicin
- Ring measurement (radius, mm) [5]: 11 mm
- Resistance of the strain to the antibiotic (in words) [5]: less resistance
- Ring measurement (radius, mm) [6]: 11 mm
- Ring measurement (radius, mm) [7]: 4 mm
- Antibiotic resistance of cured cells (in words) [1]: loss of antibiotic resistance

Molecule: Neomycin
- Ring measurement (radius, mm) [5]: 8 mm
- Resistance of the strain to the antibiotic (in words) [5]: less resistance
- Ring measurement (radius, mm) [6]: 11 mm
- Resistance of the strain to the antibiotic (in words) ([6]; disc test): retained resistance
- Ring measurement (radius, mm) [7]: 7 mm
- Antibiotic sensitivity of cured cells (in words) [4]: more sensitive
- Ring measurement (radius, mm) ([8]; antibiotic disc, Mueller Hinton plates, ECMS091703HM-SR): 34 mm
- Resistance of the strain to the antibiotic (in words) ([8]; disc test, ECMS091703HM-SR compared with ECMS091703HM-competent): less resistance

Molecule: Penicillin
- Antibiotic resistance of cured cells (in words) [1]: retained resistance

Molecule: Sodium Chlorite [NaClO2]
- Turbidity ([9]; NaClO2 0.03125 mM): Pos
- Turbidity ([9]; NaClO2 0.0625 mM): Pos
- Turbidity ([9]; NaClO2 0.125 mM): Neg
- Turbidity ([9]; NaClO2 0.25 mM): Neg
- Turbidity ([9]; NaClO2 0.5 mM): Neg
- Turbidity ([9]; NaClO2 1 mM): Neg
- Turbidity ([9]; NaClO2 10 mM): Neg
- Turbidity ([10]; NaClO2 0.03125 mM): Pos
- Turbidity ([10]; NaClO2 0.0625 mM): Pos
- Turbidity ([10]; NaClO2 0.125 mM): Neg
- Turbidity ([10]; NaClO2 0.25 mM): Neg
- Turbidity ([10]; NaClO2 0.5 mM): Neg
- Turbidity ([10]; NaClO2 1 mM): Neg
- Turbidity ([10]; NaClO2 10 mM): Neg

Molecule: Sulfatrim [SXT]
- Ring measurement (radius, mm) [5]: 16 mm
- Resistance of the strain to the antibiotic (in words) [5]: less resistance
- Ring measurement (radius, mm) [6]: 17 mm
- Ring measurement (radius, mm) [7]: 11 mm

Molecule: Trimethoprim/Sulphamethoxazole
- MIC ([1]; Table 4, E. COLH): NI/<=2.0000
- MIC ([1]; Table 5, E. COS): NI/<=2.0000
- MIC [2]: NI/<=2.0000
- MIC [3]: NI/<=2.0000
- MIC [4]: NI/<=2.0000
